Test results reported in publication PMC4839570, “Novel Anthra[1,2-c][1,2,5]Thiadiazole-6,11-Diones as Promising Anticancer Lead Compounds: Biological Evaluation, Characterization & Molecular Targets Determination” (PLoS ONE, 2016).
Read-outs that look alike come from different tables or passages of the source.

Key:
[1] = system: IGROV1; assay: NCI-60 cytotoxicity screen; type: cell-based
[2] = system: 786-0; assay: NCI-60 cytotoxicity screen; type: cell-based
[3] = system: ACHN; assay: NCI-60 cytotoxicity screen; type: cell-based
[4] = system: SNB-75; assay: NCI-60 cytotoxicity screen; type: cell-based
[5] = system: MDA-MB-468; assay: NCI-60 cytotoxicity screen; conditions: Homo sapiens, MDA-MB-468, read-out: mean log10 of the GI50 values (converted)
[6] = system: UO-31; assay: NCI-60 cytotoxicity screen; type: cell-based
[7] = system: NF-κB p65 subunit in OVCAR-3 cells; assay: Western blotting of nuclear and cytosolic fractions; type: cell-based, human; conditions: OVCAR-3 nuclear fraction
Description: Treated cells were fractionated into nuclear and cytosolic fractions using the Nuclear/Cytosol fractionation kit (BioVision), separated by electrophoresis in SDS-PAGE gels and transferred to Amersham Hybond-P PVDF Membranes. Membranes were probed with either anti-NF-κB p65 rabbit monoclonal primary antibody [E379] Abcam # ab32536, anti-TATA binding protein (TBP) mouse antibody (1TBP18), or anti-beta Tubulin rabbit antibody [NB600-936]. After washing, membranes were incubated with either goat anti-rabbit IgG H&L (HRP) (ab6721), or rabbit anti-mouse IgG H&L (HRP) (ab6728) secondary antibodies. Membranes were developed using the Immobilon Western chemiluminescent HRP substrate kit. Protein bands were normalized to either the beta Tubulin or TBP bands and quantified using ImageJ software.

[8] = system: CCRF-CEM; assay: NCI-60 cytotoxicity screen; type: cell-based
[9] = system: MKN1; assay: JFCR-39 cytotoxicity screen; type: cell-based
[10] = system: MKN45; assay: JFCR-39 cytotoxicity screen; type: cell-based
[11] = system: SN12C; assay: NCI-60 cytotoxicity screen; type: cell-based
[12] = system: OVCAR-8; assay: JFCR-39 cytotoxicity screen; type: cell-based
[13] = system: SF-268; assay: JFCR-39 cytotoxicity screen; type: cell-based
[14] = system: NCI 60 human cancer cell lines; assay: NCI-60 screen, means, ranges and selectivity over panels; type: cell-based; conditions: for GI50: Homo sapiens
Description: Both NSC745885 and NSC757963 satisfied the pre-determined threshold inhibition criteria of the NCI-60 One-Dose Screening, so they were tested against the panels of 60 cancer cell lines of NCI (NCI-60) and 39 cancer cell lines of JFCR (JFCR-39), each cell line was tested at five small doses of our compounds. Results are expressed as the 50% growth inhibition concentration (GI50), the 50% lethal concentration (LC50) and the total growth inhibition (TGI), compared to the values of untreated control cells.
To characterize the selectivity of NSC745885 and NSC757963 further among the different types of cancer, we determined their selectivity ratios towards each cell line subpanel used in the cytotoxicity experiments. […] The promising activity of this compound is evident from the small mean GI50 values. […] The strongest activity was towards the leukemia subpanel and the least one was towards the colon cancer subpanel. […] The strongest activity was towards the melanoma subpanel and the least one was towards the colon cancer subpanel.
All cell lines were published before.

[15] = system: DMS273; assay: JFCR-39 cytotoxicity screen; type: cell-based
[16] = system: SF-268; assay: NCI-60 cytotoxicity screen; type: cell-based
[17] = system: MCF-7; assay: JFCR-39 cytotoxicity screen; type: cell-based
[18] = system: RPMI-8226; assay: NCI-60 cytotoxicity screen; type: cell-based
[19] = system: KM12; assay: NCI-60 cytotoxicity screen; type: cell-based
[20] = system: MDA-MB-231/ATCC; assay: NCI-60 cytotoxicity screen; type: cell-based
[21] = system: OVCAR-3; conditions: five-dose
[22] = Homo sapiens, Fig 7, read-out: mean log10 of the GI50 values (converted)
[23] = Homo sapiens, five-dose, read-out: GI50
[24] = Homo sapiens, five-dose, read-out: LC50 (the source's name)
[25] = Homo sapiens, read-out: LC50 (the source's name)

O=C1c2ccccc2C(=O)c2c1ccc1nsnc21 [NSC745885, anthra[1,2-c][1,2,5]thiadiazole-6,11-dione]
GI50 ([1]; Homo sapiens, IGROV-1, Fig 7, read-out: mean log10 of the GI50 values (converted)): 1380 nM | GI50 ([1]; Homo sapiens, IGROV-1, five-dose, read-out: GI50): 1360 nM | CC50 ([1]; Homo sapiens, IGROV-1, five-dose, read-out: LC50 (the source's name)): 6350 nM | TGI ([1]; five-dose): 2940 nM | TGI ([2]; 786–0, five-dose): 19300 nM | GI50 ([2]; Homo sapiens, 786-0, Fig 7, read-out: mean log10 of the GI50 values (converted)): 4900 nM | GI50 ([2]; Homo sapiens, 786–0, five-dose, read-out: GI50): 6170 nM | CC50 ([2]; Homo sapiens, 786–0, five-dose, read-out: LC50 (the source's name)): 50400 nM | GI50 [3, 22]: 1580 nM | GI50 [3, 23]: 1460 nM | CC50 [3, 24]: 5270 nM | inhibition at 10 µM ([3]; Homo sapiens, single dose 10 μM, read-out: growth inhibition): 94.3% | TGI ([3]; five-dose): 2770 nM | GI50 [4, 22]: 1700 nM | GI50 [4, 23]: 2030 nM | CC50 [4, 24]: 18600 nM | TGI ([4]; five-dose): 5200 nM | GI50 [5]: 1820 nM | GI50 [6, 22]: 1780 nM | GI50 [6, 23]: 1620 nM | CC50 [6, 24]: 6010 nM | TGI ([6]; five-dose): 3120 nM | dose of almost complete inhibition of nuclear NF-κB p65 expression [7]: 2.4 µM | GI50 [8, 22]: 1550 nM | GI50 [8, 23]: 1080 nM | CC50 [8, 24]: > 100000 nM | TGI ([8]; five-dose): 4100 nM | TGI [9]: 1500 nM | GI50 ([9]; Homo sapiens, MKN-1): 470 nM | CC50 ([9]; Homo sapiens, MKN-1, read-out: LC50 (the source's name)): 4300 nM | TGI [10]: 9800 nM | GI50 ([10]; Homo sapiens, MKN-45): 3100 nM | CC50 ([10]; Homo sapiens, MKN-45, read-out: LC50 (the source's name)): 39000 nM | GI50 [11, 22]: 1780 nM | GI50 [11, 23]: 1330 nM | CC50 [11, 24]: 7560 nM | TGI ([11]; five-dose): 3170 nM | TGI [12]: 4000 nM | GI50 ([12]; Homo sapiens): 1400 nM | CC50 [12, 25]: 18000 nM | TGI [13]: 3800 nM | GI50 ([13]; Homo sapiens): 2000 nM | CC50 [13, 25]: 7100 nM | selectivity ratios of the NCI subpanels other than leukemia [14]: less than 3 | GI50 ([14]; Fig 7, read-out: MG-MID of mean log10 GI50 (converted)): 2400 nM | GI50 ([14]; NCI Breast Cancer, read-out: Mean GI50 of subpanel): 1540 nM | GI50 ([14]; NCI CNS Cancer, read-out: Mean GI50 of subpanel): 1910 nM | GI50 ([14]; NCI Colon Cancer, read-out: Mean GI50 of subpanel): 7230 nM | GI50 ([14]; NCI Leukemia, read-out: Mean GI50 of subpanel): 966 nM | GI50 ([14]; NCI Melanoma, read-out: Mean GI50 of subpanel): 1650 nM | GI50 ([14]; NCI Non-Small Cell Lung Cancer, read-out: Mean GI50 of subpanel): 5370 nM | GI50 ([14]; NCI Ovarian Cancer, read-out: Mean GI50 of subpanel): 2240 nM | GI50 ([14]; NCI Prostate Cancer, read-out: Mean GI50 of subpanel): 2450 nM | GI50 ([14]; NCI Renal Cancer, read-out: Mean GI50 of subpanel): 3650 nM | GI50 ([14]; all NCI subpanels, read-out: mean GI50 values of the NCI 60 subpanels, range): 970 to 7200 nM | GI50 ([14]; equivalent to MID, read-out: Mean GI50 of all NCI-60 cell line panels): 3230 nM | GI50 ([14]; five-dose, read-out: NCI-60 GI50 values, range over cell lines): 160 to 17400 nM | Selectivity ratio ([14]; NCI Breast Cancer): 2.1 | Selectivity ratio ([14]; NCI CNS Cancer): 1.69 | Selectivity ratio ([14]; NCI Colon Cancer): 0.45 | Selectivity ratio ([14]; NCI Leukemia): 3.35 | Selectivity ratio ([14]; NCI Melanoma): 1.96 | Selectivity ratio ([14]; NCI Non-Small Cell Lung Cancer): 0.6 | Selectivity ratio ([14]; NCI Ovarian Cancer): 1.44 | Selectivity ratio ([14]; NCI Prostate Cancer): 1.32 | Selectivity ratio ([14]; NCI Renal Cancer): 0.89 | TGI [15]: 3800 nM | GI50 ([15]; Homo sapiens, DMS-273): 2000 nM | CC50 ([15]; Homo sapiens, DMS-273, read-out: LC50 (the source's name)): 7000 nM | GI50 [16, 22]: 2750 nM | GI50 [16, 23]: 2170 nM | CC50 [16, 24]: 27700 nM | TGI ([16]; five-dose): 5770 nM | TGI [17]: 3900 nM | GI50 ([17]; Homo sapiens, MCF7): 1900 nM | CC50 ([17]; Homo sapiens, MCF7, read-out: LC50 (the source's name)): 8100 nM | GI50 [18, 22]: 1350 nM | GI50 [18, 23]: 1180 nM | CC50 [18, 24]: > 100000 nM | TGI ([18]; five-dose): 3460 nM | GI50 [19, 22]: 4680 nM | GI50 [19, 23]: 1960 nM | CC50 [19, 24]: 59700 nM | TGI ([19]; five-dose): 5540 nM | GI50 [20, 22]: 2140 nM | GI50 [20, 23]: 1750 nM | CC50 [20, 24]: > 100000 nM | TGI ([20]; five-dose): 5900 nM | TGI [21]: 2460 nM
